Data reported in US11738007B2, “Treatment of glaucoma using endothelin receptor antagonists” (Perfuse Therapeutics, Inc., priority 2019, dated 2023).

Tests used:
[1] = tested on: ETA/ETB receptor; experiment: ETA/ETB selectivity (specificity); assay type: biochemical; conditions: ETA versus ETB, rating in words
Text: (§1) In the above table, the physicochemical data, e.g., solubility, were obtained following standard protocols known in the field (see, e.g., Reis et al., Mini Rev Med Chem., 2010, 10(11):1071-6; Avdeef et al., Expert Opin Drug Metab Toxicol., 2005, 1(2):325-42; Bharate et al., Comb Chem High Throughput Screen., 2016, 19(6):461-9; and Jain et al., J Pharm Biomed Anal., 2013, 86:11-35); and the biochemical data, i.e., potency for ETA/ETB, were obtained following the protocols known in the field (see, e.g., Kirkby et al., Br J Pharmacol., 2008, 153(6):1105-19; and Maguire et al., Br J Pharmacol., 2014, 171(24):5555-72).

[2] = tested on: oxygen-induced ischemic retinopathy; experiment: Mouse oxygen-induced ischemic retinopathy (OIR) model; assay type: in vivo, mice; conditions: IVT 1 μL of 2 μg/μL, single dose; 24, 48, 96 hours
Description: A relevant mice model was used to obtain the retinal hypoxia area in mice with oxygen-induced ischemic retinopathy (OIR) at different time points, as shown in FIG. 4. […] Briefly, at P17, mice with OIR (n=60) were given an injection of ET-1 antagonist (1 μL of 2 μg/μL Edonentan formulation, single dose) in one eye and PBS in the fellow eye. At 24, 48, and 96 hours after injection, mice (n=10 for each time point) were euthanized and the retinas were dissected and stained with GSA lectin and hypoxyprobe. The area of NV, area of retinal hypoxia, and the area of retinal nonperfusion were determined for each retina.

[3] = tested on: ET-1 induced vasospasm; experiment: Rabbit ET-1 induced vasospasm model, retinal blood flow; assay type: in vivo
Description: Adult, male Dutch-belted rabbits were given a 20 μl intravitreal injection (IVT) of 0.5 μg of ET-1 followed by a 20 μl intravitreal injection of 10-100 μg Edonentan given 30 min after the ET-1 administration. IOP, optical coherence tomography-angiography (OCT-A), and fluorescein angiograms (FA) were performed at pre-specified time points (30, 45, 60, and 75 min) following ET-1 and Edonentan administration to assess retinal blood flow changes induced by ET-1+/−Edonentan. […] To evaluate the effect of retinal blood flow following intravitreally administered endothelin-1 (ET-1) followed by the antagonist Edonentan in the rabbit, rabbits (Oryctolagus cuniculus) were given a 20 μL intravitreal injection of ET-1 in the left eye followed by a 20 μL intravitreal injection of Edonentan at 2 (or 3) different doses (e.g. 0.1 μg, 0.5 μg, 2.5 μg). The pulse ox, tonometry, optical coherence tomography angiography (OCTA), fluorescein angiography (FA) and retinal leakage scoring were performed for evaluation.

[4] = Pharmacokinetics after topical administration in the rabbit; assay type: in vivo, Dutch-belted rabbits; conditions: single topical eye drop 100 μg; 10 minutes, 2 and 7 hours
Description: To determine the pharmacokinetic properties of Edonentan following topical administration in the rabbit, rabbits (Dutch-belted rabbits) received an eye drop in both eyes (100 μg of Edonentan, 35 μL dose volume/eye). After the administrations, the animals (N=2) were euthanized at different time points (e.g. 10 minutes (immediately after pot-dose), 2 and 7 hours) and tissues were collected for analysis. List of tissues collected include plasma, retina, vitreous humor and bulbar conjunctiva.

[5] = Pharmacokinetics after intravitreal administration in the rabbit; assay type: in vivo, rabbits (Oryctolagus cuniculus); conditions: plasma and ocular tissues, FIG. 9A-9D
Description: To determine the pharmacokinetic and safety properties of Edonentan following intravitreal administration in the rabbit, rabbits (Oryctolagus cuniculus) received bilateral intravitreal injections (20 μL injection volume/eye). Following the injections, animals were tranquilized with a ketamine/xylazine cocktail, and then the animals were euthanized with an overdose of sodium pentobarbital (Euthasol). Animals designated for the pharmacokinetic analysis were euthanized at different time points (e.g. 12, 16, 24, 36 and 48 hours). At least 1.0 mL of whole blood was drawn from the marginal ear vein or cardiac puncture (terminal bleed only) into K2EDTA tubes for plasma collection and processed for analytical analysis.
Immediately following euthanasia, the eyes was enucleated. Aqueous humor from both eyes was removed via syringe and snap frozen for analysis. Eyes were dissected when frozen to isolate various ocular tissues and minimize drug diffusion to adjacent tissues. Tissues from left and right eyes were collected in separate vials for analysis. List of tissues collected include plasma and aqueous humor, iris/ciliary body (ICB), retina, vitreous humor and RPE/choroid. The pharmacokinetic properties of intravitreally delivered Edonentan in rabbits are shown in FIG. 9A, FIG. 9B, FIG. 9C and FIG. 9D.

[6] = Permeability (PAMPA); assay type: in vitro ADME; conditions: rating in words
Text: as §1

In the case of Cc1onc(NS(=O)(=O)c2ccccc2-c2ccc(-c3ncco3)cc2CN(C)C(=O)CC(C)(C)C)c1C [Edonentan, N-[[2′-[[(4,5-dimethyl-3-isoxazolyl)amino]sulfonyl]-4-(2-oxazolyl)[1,1′-biphenyl]-2-yl]methyl]-N,3,3-trimethylbutanamide], the “Specificity (rating)” value [1] is reported as “High specificity”, the Retinal hypoxia area [2] is reported as “improvement” and the “Fluorescein dye velocity, dose dependence” value ([3]; 0.1 μg ET-1 and 0.1, 0.5, 2.5 or 10 μg Edonentan IVT, FIG. 8A/8B) is reported as “dose-response”. The “Effect of ET-1 (retinal vasoconstriction) after antagonist, fluorescein angiography” value ([3]; 0.5 μg ET-1 IVT, 10 μg Edonentan IVT 30 min after ET-1) was “reversed”, the “Time to reversal of ET-1 effect” value ([3]; 0.5 μg ET-1 IVT, 10 μg Edonentan IVT, time after ET-1 (60 min after Edonentan)) was no more than 90 min and the “Fluorescein dye velocity as an index of retinal blood flow” value ([3]; 0.5 μg ET-1 and 10 μg antagonist IVT, healthy rabbits, FIG. 3) was “improved to control levels”. For the same molecule, the “Detection in plasma, retina, vitreous humor and bulbar conjunctiva” value [4] was “detected in all tissues examined at all timepoints”, the t1/2 [5] was “longer” and the “Permeability (rating)” value [6] was “Mid-High”.
